# In patent US6841684B2, “Imidiazoles having reduced side effects” (Allergan, Inc., priority 1997, dated 2005):
# Marks after values point to notes of the source that are not given here.
# What was measured:
# [1] = tested on: conscious cynomolgus monkeys; experiment: Cardiovascular side effects (blood pressure, heart rate) after i.v. administration; format: in vivo, cynomolgus monkey; conditions: up to 6 hours, + with * = increase from base levels
# Excerpt: Cardiovascular measurements were made in a different group of monkeys using a BP 100S automated sphygmomanometer (Nippon Colin,. Japan).
# [2] = tested on: rat retinal ganglion cells after optic nerve injury; experiment: Calibrated rat optic nerve injury model, retinal ganglion cell numbers; format: in vivo
# Excerpt: These models include light-induced photoreceptor degeneration in albino rat, as described in Wen et al, “Alpha2-adrenergic agonists induce basic fibroblast growth factor expression in photoreceptors in vivo and ameliorate light damage.” J. Neurosci. […] Invest. Ophthalmol. Vis. Sci. 37, 540,S114. […] Additionally commonly assigned and co-pending application, 08/496,292 filed on 28 Jun.
# [3] = tested on: conscious cynomolgus monkeys; experiment: Sedation score during the IOP experiments; format: in vivo, cynomolgus monkey; parameters: key to Sedation (0-4): 0=alert, typical vocalization, movement, etc.; 1=calm, less movement; 2=slightly sedated, some vocalization, responsive to stimulation; 3=sedated, no vocalization, some response to stimulation; 4=asleep
# Experimental: At the same time, sedation was measured and assessed according to the following score: 0=alert, typical vocalization, movement, etc.; 1=calm, less movement; 2=slightly sedated, some vocalization, responsive to stimulation; 3=sedated, no vocalization, some response to stimulation; 4=asleep.
# [4] = tested on: cynomolgus monkeys with sustained elevated IOP; experiment: IOP lowering in conscious monkeys, eyes made hypertensive by argon laser photocoagulation; format: in vivo, cynomolgus monkey; conditions: Macaca fascicularis, topical, 6 h, single 50 μl eye drop, up to 6 hours, read-out: Maximum % Decrease From Pretreatment Levels Hypertensive Eye (IOP); for inhibition in vivo at 0.3 %: ocular dose 0.3%
# Excerpt: Measurements of IOP were made in fully conscious female cynomolgus monkeys weighing 3-4 kg with sustained elevated IOP that was produced in the right eye by argon laser photocoagulation of the trabecular meshwork. Animals were usable for experiments 2 months following surgery. During the experiments, monkeys sat in specially designed chairs (Primate Products, San Francisco), and were fed orange juice and fruit as needed. A 30R model Digilab pneumatonometer (Alcon, Tex.) was used to measure IOP.
# Twenty five μl of an anesthetic (proparacaine) was topically applied to each monkey before IOP measurements to minimize ocular discomfort due to tonometry. Two baseline measurements were made prior to instillation of the drugs, followed by periodic measurements up to 6 hours post-instillation. The test compounds were administered unilaterally as a single 50 μl eye drop; the contralateral eyes received an equal volume of saline.
# [5] = target: T1, rat α2B (RNG gene) receptor (Rattus norvegicus, UniProt P19328); experiment: RSAT (Receptor Selection and Amplification Technology) assay, alpha 2B; format: cell-based; conditions: ratio of maximal effect to that of standard full agonist oxymetazoline
# T1 construct: expressed in transfected cells; host or cells: NIH-3T3 cells, calcium phosphate cotransfection
# T1 sequence (P19328 1-453): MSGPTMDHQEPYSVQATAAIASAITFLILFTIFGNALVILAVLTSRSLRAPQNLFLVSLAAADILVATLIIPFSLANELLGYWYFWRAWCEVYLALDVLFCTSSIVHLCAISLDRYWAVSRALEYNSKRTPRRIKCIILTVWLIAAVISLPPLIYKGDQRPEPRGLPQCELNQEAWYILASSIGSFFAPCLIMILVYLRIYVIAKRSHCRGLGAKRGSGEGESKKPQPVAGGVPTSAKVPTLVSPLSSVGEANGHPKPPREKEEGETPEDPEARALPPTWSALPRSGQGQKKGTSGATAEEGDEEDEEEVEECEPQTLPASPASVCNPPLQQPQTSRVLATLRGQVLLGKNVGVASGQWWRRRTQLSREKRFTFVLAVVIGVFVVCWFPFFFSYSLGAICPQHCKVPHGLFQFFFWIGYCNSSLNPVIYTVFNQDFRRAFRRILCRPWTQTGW
# Summary of the method: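 NIH-3T3 cells transiently cotransfected with receptor, hybrid Gq/i5 protein and β-galactosidase marker were incubated with compound dilutions in triplicate for 72-96 hr at 37°. Proliferation was read as β-galactosidase activity (o-nitrophenyl-β-D-galactopyranoside, overnight at 30°, OD 420 nm). EC50 and efficacy were derived, the latter relative to a standard full agonist's maximal effect.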
# [6] = tested on: rats; experiment: Sedative activity measured using an activity chamber; format: in vivo, rat; conditions: for Sedation (%): 30 minutes after dosing
# Excerpt: (§1) Alleviation of pain including neuropathic pain is another example of a disorder in which the compounds of the invention are useful and advantageous since pain is alleviated without undesirable side effects. […] (See, for example, Kim, S. and Chung, J. “An experimental model for peripheral neuropathy produced by segmental spinal nerve ligation in the rat.” Pain 50 pp. 355-363 (1992).) Following ligation of two spinal nerves, the animals develop a sensitivity to normally non-painful stimuli such as touch. The ability of alpha2 compounds to reverse this sensitivity, called allodynia, was tested 30 minutes after dosing by either intrathecal or intraperitoneal administration. The sedative activity of each compound was also measured using an activity chamber.
# [7] = tested on: rats with ligation of two spinal nerves; experiment: Spinal nerve ligation model of neuropathic pain, reversal of tactile allodynia; format: in vivo, rat; conditions: 30 minutes after dosing
# Excerpt: as §1
structure (smiles),measurement,setting,value
"Cl.O=C1c2ccsc2CCC1Cc1c[nH]cn1 (stereo not shown) [Example B-9b, 5-(1H-imidazol-4(5)-ylmethyl)-6,7-dihydro-5H-benzo[b]thiophen-4-one, hydrogen chloride salt]","Maximum % Decrease From Pretreatment Levels, Heart Rate",[1]; i.v. 500 μg/kg,+20.2 ± 3.4* %
same,"Maximum % Decrease From Pretreatment Levels, Mean Arterial Blood Pressure",[1]; i.v. 500 μg/kg,2.8 ± 1.8%
same,Retinal Ganglion Cell Numbers at 2 Weeks Post-Injury,"[2]; 0.5 mg/kg i.p., vehicle control 33 ± 8",73 ± 12 cells/microscopic field
same,neuroprotection (in words),[2]; calibrated rat optic nerve injury model,neuroprotective
same,Sedation (0-4),[3]; ocular dose 0.1%,0
same,Sedation (0-4),[3]; ocular dose 0.3%,0
same,inhibition in vivo at 0.1 %,[4]; ocular dose 0.1%,18.7 ± 5.5%
same,inhibition in vivo at 0.3 %,[4],26.9 ± 6.1%
same,"Intrinsic Activity Relative to Oxymetazoline, Alpha 2B",[5],0.68
"Clc1cccc(Cl)c1N=C1NCCN1 [clonidine, reference compound]",Sedation (%),[6]; intrathecal 1 μg,15%
same,Sedation (%),[6]; intrathecal 10 μg,60* %
same,sedation (in words),"[6]; intrathecal or intraperitoneal, rats",cause sedation at doses only slightly higher than their anti-allodynic doses
same,Reversal of Tactile Allodynia (%),[7]; intrathecal 0.1 μg,20* %
same,Reversal of Tactile Allodynia (%),[7]; intrathecal 1 μg,96* %
same,"Maximum % Decrease From Pretreatment Levels, Heart Rate",[1]; i.v. 17 μg/kg,32 ± 4%
same,"Maximum % Decrease From Pretreatment Levels, Mean Arterial Blood Pressure",[1]; i.v. 17 μg/kg,29 ± 7%
same,"Maximum % Decrease From Pretreatment Levels, Heart Rate",[1]; i.v. 50 μg/kg,50 ± 5%
same,"Maximum % Decrease From Pretreatment Levels, Mean Arterial Blood Pressure",[1]; i.v. 50 μg/kg,35 ± 5%
same,sedation (in words),"[3]; ocular administration, monkeys",caused sedation
same,Sedation (0-4),[3]; ocular dose 0.1%,1
same,Sedation (0-4),[3]; ocular dose 0.3%,2
same,inhibition in vivo at 0.3 %,[4],41 ± 5%
